According to BigSolDB 2.1:

CC(=O)NC1(C)CCC2CC1C(C)=NC2(C)C (stereo not given)
solubility (mole fraction)
Conditions	298.15 K	303.15 K	308.15 K	313.15 K	318.15 K
in 2-ethoxyethanol	0.00185	0.00217	0.00248	0.00282	0.00322
in acetone	0.00359	0.00388	0.00411	0.00445	0.00493
in acetonitrile	0.0257	0.0265	0.0275	0.0292	0.0305
in acrylonitrile	0.00442	0.00458	0.00487	0.00528	0.00581
in ethanol	0.00153	0.00184	0.00211	0.00244	0.00284
in isopropanol	0.00134	0.00155	0.00182	0.00214	0.00243
in methanol	0.00945	0.0103	0.0111	0.0122	0.0142
in n-butanol	0.00138	0.00164	0.00191	0.00219	0.00257
in n-propanol	0.00144	0.00171	0.00196	0.00228	0.00264
in propionitrile	0.00392	0.00416	0.0044	0.00477	0.00526
in propylene glycol	0.0197	0.0206	0.022	0.0232	0.0251
in water	0.0012	0.00142	0.0016	0.00182	0.0021

CC1(N=C(O)c2ccccc2)CCC2CC1C(c1ccccc1)=[NH+]C2(C)C.[O-][Cl+3]([O-])([O-])[O-] (stereo not given)
solubility (mole fraction)
Conditions	298.15 K	303.15 K	308.15 K	313.15 K	318.15 K
in 2-ethoxyethanol	0.00256	0.00297	0.00348	0.0041	0.0048
in acetone	0.00275	0.00308	0.00363	0.00425	0.00495
in acetonitrile	0.00307	0.0035	0.00421	0.00488	0.00572
in acrylonitrile	0.00592	0.00661	0.00743	0.00856	0.0104
in ethanol	0.0015	0.00182	0.00223	0.00264	0.00316
in isopropanol	0.000845	0.00103	0.00132	0.00163	0.00199
in methanol	0.00289	0.00327	0.0038	0.00445	0.00534
in n-butanol	0.000928	0.00113	0.00146	0.00178	0.00221
in n-propanol	0.0013	0.0016	0.00193	0.00232	0.00288
in propionitrile	0.00186	0.00215	0.00254	0.00305	0.00346
in propylene glycol	0.0122	0.0132	0.0147	0.0164	0.0187
in water	3.8e-05	5.7e-05	7.7e-05	9.9e-05	0.000115
